Data published in patent US6960470B1 (priority 1998, dated 2005).

Tested on: hippocampal slices from wt and Δ9 mutant (PS-1) animals
Assay type: cell-based
Settings: flunitrazepam in the bathing medium; Δ9 mutant slices

**Q.** Which “potentiation in mutants (+FLU) compared with the wt (−FLU)” value does the source give for `CN1C(=O)CN=C(c2ccccc2F)c2cc([N+](=O)[O-])ccc21` [flunitrazepam] here?
**A.** potentiation to almost the wt levels
